Source: PMC8508374, “In Silico Identification and Evaluation of Natural Products as Potential Tumor Necrosis Factor Function Inhibitors Using Advanced Enalos Asclepios KNIME Nodes” (International Journal of Molecular Sciences, 2021)

Biological target: T1, TNF (TNF-TNFR1 binding) (Homo sapiens, UniProt P01375)
T1 construct: soluble TNF and its receptor TNFR1 in sandwich ELISA; human TNF-alpha (Peprotech) is printed for the cell assays; with Tumor necrosis factor receptor superfamily member 1A
Assay: TNF-TNFR1 sandwich ELISA, inhibition of binding
Conditions: inhibition of TNF-TNFR1 interaction

T1 sequence (P01375 77-233): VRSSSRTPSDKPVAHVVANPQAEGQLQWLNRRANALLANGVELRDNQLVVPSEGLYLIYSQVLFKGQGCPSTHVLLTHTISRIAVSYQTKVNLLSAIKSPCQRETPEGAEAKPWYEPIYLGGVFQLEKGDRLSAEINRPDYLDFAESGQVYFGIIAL
T1 sequence (P19438 30-455 partner): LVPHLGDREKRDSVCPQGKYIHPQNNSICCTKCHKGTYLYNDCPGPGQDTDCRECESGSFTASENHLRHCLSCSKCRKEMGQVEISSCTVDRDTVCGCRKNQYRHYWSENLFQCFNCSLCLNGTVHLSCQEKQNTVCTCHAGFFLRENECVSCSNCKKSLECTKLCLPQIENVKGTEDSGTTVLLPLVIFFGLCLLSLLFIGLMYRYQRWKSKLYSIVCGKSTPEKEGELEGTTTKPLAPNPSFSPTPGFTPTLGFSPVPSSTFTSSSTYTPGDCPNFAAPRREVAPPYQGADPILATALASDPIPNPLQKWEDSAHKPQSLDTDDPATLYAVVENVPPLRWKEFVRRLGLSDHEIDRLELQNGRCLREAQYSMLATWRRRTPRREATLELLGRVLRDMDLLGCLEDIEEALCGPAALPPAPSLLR

IC50: 90.2 ± 19 µM
SMILES: Oc1ccc([C@@H]2c3c(O)cc4c(c3C3C2c2c(c(O)cc5c2[C@H](c2cc(O)cc(O)c2)[C@@H](c2ccc(O)cc2)O5)[C@H]3c2ccccc2)[C@H](c2cc(O)cc(O)c2)[C@@H](c2ccc(O)cc2)C4)cc1 (stereo partly shown) [Nepalensinol B]
